Test results as given in ChEMBL document CHEMBL5370532, “Selective Estrogen receptor degraders (SERDs) for the treatment of breast cancer: An overview” (Eur J Med Chem, 2023).
Blank lines part the entries; values can stand above or below the molecule they belong to.

How the values were obtained:
MCF7 [1] = assay: Antiproliferative activity against 17beta-estradiol stimulated human MCF7 cells assessed as inhibition of cell growth incubated for 5 to 7 days by fluorescence based assay; assay type: functional
MCF7 [2] = assay: Antiproliferative activity against human MCF7 cells assessed as inhibition of cell growth incubated for 48 hrs by MTT assay; assay type: functional, cell-based; details: MCF7, 48 h
Ishikawa = assay: Antiproliferative activity against human Ishikawa cells assessed as inhibition of cell growth incubated for 48 hrs by MTT assay; assay type: functional, cell-based
MCF7 [3] = assay: Antiproliferative activity against human MCF7 cells assessed as inhibition of cell growth incubated for 48 hrs by CCK-8 assay; assay type: functional, cell-based; details: MCF7, 48 h
Estrogen receptor beta = Estrogen receptor beta (Homo sapiens, UniProt Q92731); assay: Inhibition of ERbeta (unknown origin) incubated for 4 hrs by fluorescence polarization assay
[4] = Downregulation of ER expression in human MCF7 cells incubated for 48 hrs by ELISA; assay type: functional, cell-based; details: MCF7, 48 h
[5] = In vivo antagonist activity against E2-mediated uterine stimulation in Sprague-Dawley rat administered orally or subcutaneously once daily for 3 days; assay type: functional, organism-based
[6] = Half life in Sprague-Dawley rat at 10 mg/kg, po via gavage for 2 hrs by UHPLC analysis; assay type: ADME, organism-based; details: in vivo
[7] = Observed AUC (0 to infinity) in Sprague-Dawley rat at 10 mg/kg, po via gavage for 2 hrs by UHPLC analysis; assay type: ADME, organism-based; design: dose 10 mg/kg, time 2 hrs, route po; details: in vivo
[8] = Cmax in Sprague-Dawley rat at 10 mg/kg, po via gavage for 2 hrs by UHPLC analysis; assay type: ADME, organism-based; design: dose 10 mg/kg, time 2 hrs, route po; details: in vivo

Sequence of Estrogen receptor beta (Q92731 whole entry): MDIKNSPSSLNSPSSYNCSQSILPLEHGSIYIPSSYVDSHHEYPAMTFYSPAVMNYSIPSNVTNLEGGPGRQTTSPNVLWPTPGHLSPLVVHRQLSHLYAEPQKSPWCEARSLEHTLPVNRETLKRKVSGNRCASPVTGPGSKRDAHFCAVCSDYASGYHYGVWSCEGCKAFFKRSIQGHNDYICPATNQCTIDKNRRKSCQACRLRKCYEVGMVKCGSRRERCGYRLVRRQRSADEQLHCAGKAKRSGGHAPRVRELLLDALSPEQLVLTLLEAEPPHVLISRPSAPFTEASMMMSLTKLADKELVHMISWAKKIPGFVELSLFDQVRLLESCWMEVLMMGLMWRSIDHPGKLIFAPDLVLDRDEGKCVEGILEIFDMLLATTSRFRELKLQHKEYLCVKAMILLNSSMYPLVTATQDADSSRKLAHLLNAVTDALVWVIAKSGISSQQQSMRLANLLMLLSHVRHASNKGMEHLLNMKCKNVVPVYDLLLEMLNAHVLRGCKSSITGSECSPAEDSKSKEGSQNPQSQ

- IC50 (MCF7 [1]): 7.2 nM
Compound: CC1=C(c2ccc(O)cc2)[C@H](c2ccc(OCCN3CC[C@@H](C)C3)cc2)Oc2cc(O)ccc21

- IC50 (MCF7 [2]): 3150 nM
Compound: O=C(/C=C\c1ccc(-c2nc(-c3ccc(O)cc3)nc(-c3ccc(O)cc3)n2)cc1)NCCCO
- IC50 (Ishikawa): 3110 nM

- IC50 (MCF7 [3]): 800 nM
Compound: COc1ccc(C(=O)C2=C(Oc3ccc(/C=C/C(=O)O)cc3)c3ccc(O)cc3OC2)cc1

- IC50 (Estrogen receptor beta): 870 nM
- EC50 [4]: 0.6 nM
- EC50 [5]: 0.3 mg/kg
Compound: CCNCCc1ccc(CN(CC)c2cc(OC)ccc2[C@@H]2CCc3cc(O)ccc3C2)cc1 [ELACESTRANT]

- half-life [6]: 17 h
- AUC(0-inf) [7]: 1450 ng·h/mL
- Cmax [8]: 158 ng/mL
Compound: C[C@]12CC[C@@H]3c4ccc(B(O)O)cc4C[C@@H](CCCCCCCCC[S+]([O-])CCCC(F)(F)C(F)(F)F)[C@H]3[C@@H]1CC[C@@H]2O (stereo not given in full) [ZB-716]
